The nature of this data set: Spectral properties of rhodamine bis-boronic acids and precursors in DMSO:buffer. The class given is physicochemical. On the set-up: Brightness: scale not given here. As for the experimental part: Characterization: The spectral properties of compounds 50-53 were determined. Absorption and fluorescence spectra of solutions of the rhodamine bis-boronic acids 51 and 53, and their respective precursors 50 and 52, are shown in FIGS. 27A-C (in DMSO:buffer 1:9) and 27D-F (DMSO:buffer 1:1). […] Excitation and emission spectra were normalized to their absorbance at the excitation wavelength, and are proportional to quantum yield.

Where [1] appears, read: DMSO:buffer 1:1, pH 7.4 phosphate buffer 12.5 mM.
Where [2] appears, read: DMSO:buffer 1:9, pH 7.4 phosphate buffer 12.5 mM.

Marks after values point to notes of the source that are not given here.

For the compound `N=c1ccc2c(ccc3c(-c4ccccc4C(=O)O)c4ccc5cc(N)ccc5c4oc32)c1` [Compound 52, naphthorhodamine], for the setting “DMSO buffer 1:9”, the Quantum yield was 10%. Where the note is “DMSO:buffer 1:1”, the Brightness was 121^g, the Em is recorded as 676 nm, the Ex came out at 596 nm and the Q.Y. was found to be 0.11. Moreover, where the note is “DMSO:buffer 1:1”, the ε turned out to be 1081 M⁻¹ cm⁻¹. Under setting [1], this compound had an Abs of 602 nm. Besides, under “DMSO:buffer 1:9”, the Brightness is recorded as 1144^d, the Em is listed as 668 nm, the Ex was determined as 584 nm and the Q.Y. stood at 0.10. The ε (DMSO:buffer 1:9) is 11994 M⁻¹ cm⁻¹. The Abs under setting [2] amounted to 578 nm.

As for `N=c1ccc2c(-c3ccccc3C(=O)O)c3ccc4cc(N)ccc4c3oc-2c1` [Compound 50, seminaphthorhodamine], for the setting “DMSO buffer 1:9”, the Quantum yield was 19%, the “Red shift of maximum absorption compared to rhodamine 110” value was 40 nm and the “Red shift of maximum emission compared to rhodamine 110” value is reported as roughly 100 nm. For the setting “DMSO:buffer 1:1”, the Brightness was 6298, the Em was 630 nm, the Ex is recorded as 542 nm and the Q.Y. stood at 0.30. The compound further yielded a ε (DMSO:buffer 1:1) of 21064 M⁻¹ cm⁻¹. Moreover, the Abs under setting [1] is given as 542 nm. Also, where the note is “DMSO:buffer 1:9”, the Brightness is reported as 8083, the Em was 628 nm, the Ex came out at 534 nm and the Q.Y. is 0.19. Also, the ε (DMSO:buffer 1:9) was determined as 42701 M⁻¹ cm⁻¹. In addition, the Abs under setting [2] was 535 nm.
